Measurements: patent US20190374563A1, “TREATMENT OF KLEBSIELLA PNEUMONIAE INFECTIONS WITH ANTIBACTERIAL AMINOGLYCOSIDE COMPOUNDS” (Achaogen, Inc., priority 2009, published 2019)
≈ marks a conversion by molar mass, not a printed value. Read-outs that look alike come from different tables or passages of the source.

Tests used:
[1] = system: E. coli ATCC 25922 (AECO001); test: MIC assay, CLSI broth microdilution; assay type: cell-based; set-up: MIC AECO001: unit not given here; settings: for MIC: Escherichia coli; for MIC AECO001: Table 3, E. coli ATCC25922
Method: (§1) Minimum inhibitory concentrations (MIC) were determined by reference Clinical and Laboratory Standards Institute (CLSI) broth microdilution methods per M7-A7 [2006]. Quality control ranges utilizing E. coli ATCC 25922, P. aeruginosa ATCC 27853 and S. aureus ATCC 29213, and interpretive criteria for comparator agents were as published in CLSI M100-S17 [2007]. Briefly, serial two-fold dilutions of the test compounds were prepared at 2× concentration in Mueller Hinton Broth. The compound dilutions were mixed in 96-well assay plates in a 1:1 ratio with bacterial inoculum. The inoculum was prepared by suspension of a colony from an agar plate that was prepared the previous day. Bacteria were suspended in sterile saline and added to each assay plate to obtain a final concentration of 5×10^5 CFU/mL. The plates were incubated at 35° C. for 20 hours in ambient air.

[2] = system: P. aeruginosa ATCC 27853 (APAE001); test: MIC assay, CLSI broth microdilution; assay type: cell-based; settings: Pseudomonas aeruginosa
Method: as §1

[3] = ATCC25922, read-out: MIC AECO001
[4] = ATCC27853, read-out: MIC APAE001
[5] = Table 1, AECO001 is ATCC25922, read-out: MIC AECO001
[6] = Table 1, APAE001 is ATCC27853, read-out: MIC APAE001

SMILES | MIC [1, 3] | MIC [2, 4] | MIC [1, 5] | MIC [2, 6] | MIC AECO001 [1]
CN[C@@H]1[C@@H](O)[C@@H](O[C@@H]2[C@@H](O)[C@H](O[C@H]3OC(CN)=CC[C@H]3NC[C@H]3C[C@H](N)C3)[C@@H](N)C[C@H]2NC(=O)[C@@H](O)CCN)OC[C@]1(C)O [Example 104, 2′-(Methyl-trans-3-amino-cyclobutyl)-1-(4-amino-2(S)-hydroxy-butyryl)-sisomicin] | < 1 µg/mL | 1 to 16 µg/mL (≈ 1.58 to 25.3 µM) |  |  | 
CN[C@@H]1[C@@H](O)[C@@H](O[C@@H]2[C@@H](O)[C@H](O[C@H]3OC(CNCC4CCNCC4)=CC[C@H]3N)[C@@H](N)C[C@H]2NC(=O)[C@H](O)CN)OC[C@]1(C)O [Example 8, 6′-Methyl-piperidinyl-1-(3-amino-2(R)-hydroxy-propionyl)-sisomicin] | < 1 µg/mL | 1 to 16 µg/mL (≈ 1.58 to 25.3 µM) |  |  | 
CN[C@@H]1[C@@H](O)[C@@H](O[C@@H]2[C@@H](O)[C@H](O[C@H]3OC(CNCC4(CN)CC4)=CC[C@H]3N)[C@@H](N)C[C@H]2NC(=O)[C@@H](O)CN)OC[C@]1(C)O [Example 66, 6′-(Methyl-1-aminomethyl-cyclopropyl)-1-(3-amino-2(S)-hydroxy-propionyl)-sisomicin] | < 1 µg/mL | 1 to 16 µg/mL (≈ 1.62 to 25.9 µM) |  |  | 
CN[C@@H]1[C@@H](O)[C@@H](O[C@@H]2[C@@H](O)[C@H](O[C@H]3OC(CNCCC4CNCCN4C)=CC[C@H]3N)[C@@H](N)C[C@H]2NC(=O)[C@@H](O)CCN)OC[C@]1(C)O (some centres unmarked) [Example 45] |  |  | < 1 µg/mL | 1 to 16 µg/mL (≈ 1.48 to 23.7 µM) | 
CN[C@@H]1[C@@H](O)[C@@H](O[C@@H]2[C@@H](O)[C@H](O[C@H]3OC(CN)=CC[C@H]3NCC3CCNC3)[C@@H](N)C[C@H]2NC(=O)[C@@H](O)CCN)OC[C@]1(C)O (stereo partly drawn) [Example 84, 2′-(Methyl-pyrrolidin-3-yl)-1-(4-amino-2(S)-hydroxy-butyryl)-sisomicin] | < 1 µg/mL | 1 to 16 µg/mL (≈ 1.58 to 25.3 µM) |  |  | 
CN[C@@H]1[C@@H](O)[C@@H](O[C@@H]2[C@@H](O)[C@H](O[C@H]3OC(CNCC4CCNCC4)=CC[C@H]3N)[C@@H](N)C[C@H]2NC(=O)[C@@H](O)CCN)OC[C@]1(C)O [Example 12, 6′-(Methyl-piperidin-4-yl)-1-(4-amino-2(S)-hydroxy-butyryl)-sisomicin] |  |  | 1 to 16 µg/mL (≈ 1.55 to 24.8 µM) | 1 to 16 µg/mL (≈ 1.55 to 24.8 µM) | 1
CN[C@@H]1[C@@H](O)[C@@H](O[C@@H]2[C@@H](O)[C@H](O[C@H]3OC(CNCC4(O)CCNCC4)=CC[C@H]3N)[C@@H](N)C[C@H]2NC(=O)[C@@H](O)CCN)OC[C@]1(C)O [Example 31] | 1 to 16 µg/mL (≈ 1.51 to 24.2 µM) | 1 to 16 µg/mL (≈ 1.51 to 24.2 µM) |  |  | 
CN[C@@H]1[C@@H](O)[C@@H](O[C@@H]2[C@@H](O)[C@H](O[C@H]3OC(CNCCO)=CC[C@H]3NC(=N)N)[C@@H](N)C[C@H]2N)OC[C@]1(C)O [Example 106, 6′-(2-Hydroxy-ethyl)-2′-guanidinium-sisomicin] | < 1 µg/mL | 1 to 16 µg/mL (≈ 1.87 to 30 µM) |  |  | 
CN[C@@H]1[C@@H](O)[C@@H](O[C@@H]2[C@@H](O)[C@H](O[C@H]3OC(CNCCO)=CC[C@H]3N)[C@@H](N)C[C@H]2NC(=O)[C@H](O)CN)OC[C@]1(C)O [Example 9, 6′-(2-Hydroxy-ethyl)-1-(3-amino-2(R)-hydroxy-propionyl)-sisomicin] | 1 to 16 µg/mL (≈ 1.73 to 27.6 µM) | > 16 µg/mL |  |  | 
CN[C@@H]1[C@@H](O)[C@@H](O[C@@H]2[C@@H](O)[C@H](O[C@H]3OC(CNCC4CCCN4)=CC[C@H]3N)[C@@H](N)C[C@H]2NC(=O)[C@@H](O)CCN)OC[C@]1(C)O (stereo partly drawn) [Example 49, 6′-(Methyl-pyrrolidin-2-yl)-1-(4-amino-2(S)-hydroxy-butyryl)-sisomicin] | < 1 µg/mL | 1 to 16 µg/mL (≈ 1.58 to 25.3 µM) |  |  | 
CN[C@@H]1[C@@H](O)[C@@H](O[C@@H]2[C@@H](O)[C@H](O[C@H]3OC(CN)=CC[C@H]3NCC(O)CN)[C@@H](N)C[C@H]2NC(=O)[C@@H](O)CCN)OC[C@]1(C)O (stereo partly drawn) [Example 101, 2′-(2-Hydroxy-3-amino-propyl)-1-(4-amino-2(S)-hydroxy-butyryl)-sisomicin] | < 1 µg/mL | 1 to 16 µg/mL (≈ 1.61 to 25.7 µM) |  |  | 
CN[C@@H]1[C@@H](O)[C@@H](O[C@@H]2[C@@H](O)[C@H](O[C@H]3OC(CNC(=N)N)=CC[C@H]3NC(=N)N)[C@@H](N)C[C@H]2N)OC[C@]1(C)O [Example 105, 6′,2′-bis-Guanidinium-sisomicin] | > 16 µg/mL | > 16 µg/mL |  |  | 
CN[C@@H]1[C@@H](O)[C@@H](O[C@@H]2[C@@H](O)[C@H](O[C@H]3OC(CNC[C@H]4C[C@H](N)C4)=CC[C@H]3N)[C@@H](N)C[C@H]2NC(=O)[C@@H](O)CN)OC[C@]1(C)O [Example 59, 6′-(Methyl-trans-3-amino-cyclobutyl)-1-(3-amino-2(S)-hydroxy-propionyl)-sisomicin] | < 1 µg/mL | 1 to 16 µg/mL (≈ 1.62 to 25.9 µM) |  |  | 
CN[C@@H]1[C@@H](O)[C@@H](O[C@@H]2[C@@H](O)[C@H](O[C@H]3OC(CNCCN)=CC[C@H]3N)[C@@H](N)C[C@H]2NC(=O)[C@@H](O)CCN)OC[C@]1(C)O [Example 38, 6′-(2-Amino-ethyl)-1-(4-amino-2(S)-hydroxy-butyryl)-sisomicin] | < 1 µg/mL | 1 to 16 µg/mL (≈ 1.69 to 27 µM) |  |  | 
CN[C@@H]1[C@@H](O)[C@@H](O[C@@H]2[C@@H](O)[C@H](O[C@H]3OC(CNCC4CC4)=CC[C@H]3N)[C@@H](N)C[C@H]2NC(=O)[C@@H](O)CN)OC[C@]1(C)O [Example 13, 6′-(Methyl-cyclopropyl)-1-(3-amino-2(S)-hydroxy-propionyl)-sisomicin] |  |  | 1 to 16 µg/mL (≈ 1.7 to 27.2 µM) | > 16 µg/mL | 1
CN[C@@H]1[C@@H](O)[C@@H](O[C@@H]2[C@@H](O)[C@H](O[C@H]3OC(CNC[C@H]4C[C@H](N)C4)=CC[C@H]3N)[C@@H](N)C[C@H]2NC(=O)C2(O)CCNC2)OC[C@]1(C)O (stereo partly drawn) [Example 78, 6′-(Methyl-trans-3-amino-cyclobutyl)-1-(3-hydroxy-pyrrolidin-3-yl-acetyl)-sisomicin] | < 1 µg/mL | 1 to 16 µg/mL (≈ 1.55 to 24.9 µM) |  |  | 
CN[C@@H]1[C@@H](O)[C@@H](O[C@@H]2[C@@H](O)[C@H](O[C@H]3OC(CNC[C@H]4C[C@@H](N)[C@@H](O)C4)=CC[C@H]3N)[C@@H](N)C[C@H]2NC(=O)[C@@H](O)CN)OC[C@]1(C)O [Example 69, 6′-(Methyl-1(R)-amino-2(S)-hydroxy-cyclopent-4(S)-yl)-1-(3-amino-2(S)-hydroxy-propionyl)-sisomicin] | < 1 µg/mL | 1 to 16 µg/mL (≈ 1.54 to 24.7 µM) |  |  | 
CN[C@@H]1[C@@H](O)[C@@H](O[C@@H]2[C@@H](O)[C@H](O[C@H]3OC(CN)=CC[C@H]3NS(=O)(=O)CCN)[C@@H](N)C[C@H]2NC(=O)[C@@H](O)CCN)OC[C@]1(C)O [Example 93, 2′-(2-Amino-ethyl-sulfonamide)-1-(4-amino-2(S)-hydroxy-butyryl)-sisomicin] | < 1 µg/mL | 1 to 16 µg/mL (≈ 1.52 to 24.4 µM) |  |  | 
CN[C@@H]1[C@@H](O)[C@@H](O[C@@H]2[C@@H](O)[C@H](O[C@H]3OC(CN)=CC[C@H]3NC(=O)C3CCCN3)[C@@H](N)C[C@H]2NC(=O)[C@@H](O)CCN)OC[C@]1(C)O (some centres unmarked) [Example 90] | < 1 µg/mL | 1 to 16 µg/mL (≈ 1.55 to 24.8 µM) |  |  | 
CN[C@@H]1[C@@H](O)[C@@H](O[C@@H]2[C@@H](O)[C@H](O[C@H]3OC(CN)=CC[C@H]3NC[C@H](C)N)[C@@H](N)C[C@H]2NC(=O)[C@@H](O)CCN)OC[C@]1(C)O [Example 95, 2′-(2(S)-Amino-propyl)-1-(4-amino-2(S)-hydroxy-butyryl)-sisomicin] | < 1 µg/mL | > 16 µg/mL |  |  | 
CN[C@@H]1[C@@H](O)[C@@H](O[C@@H]2[C@@H](O)[C@H](O[C@H]3OC(CNCC4(N)CCC4)=CC[C@H]3N)[C@@H](N)C[C@H]2NC(=O)[C@@H](O)CN)OC[C@]1(C)O [Example 56, 6′-(Methyl-1-amino-cyclobutyl)-1-(3-amino-2(S)-hydroxy-propionyl)-sisomicin] | < 1 µg/mL | > 16 µg/mL |  |  | 
